In patent US12583849B2, “KCNT1 inhibitors and methods of use” (Praxis Precision Medicines, Inc., priority 2020, dated 2026):

biological target: T1, KCNT1 (KNa1.1, Slack) (Homo sapiens, UniProt Q5JUK3); assay: KCNT1-WT-Basal Patch Clamp Assay; assay type: cell-based; settings: tetracycline inducible cell line (HEK-TREX); SyncroPatch 384PE automated patch clamp, perforated patch mode, room temperature, step from -80 mV to 0 mV
T1 construct: expressed in transfected cells; host or cells: HEK-TREX (tetracycline-inducible cell line)
T1 sequence (Q5JUK3 1-1230): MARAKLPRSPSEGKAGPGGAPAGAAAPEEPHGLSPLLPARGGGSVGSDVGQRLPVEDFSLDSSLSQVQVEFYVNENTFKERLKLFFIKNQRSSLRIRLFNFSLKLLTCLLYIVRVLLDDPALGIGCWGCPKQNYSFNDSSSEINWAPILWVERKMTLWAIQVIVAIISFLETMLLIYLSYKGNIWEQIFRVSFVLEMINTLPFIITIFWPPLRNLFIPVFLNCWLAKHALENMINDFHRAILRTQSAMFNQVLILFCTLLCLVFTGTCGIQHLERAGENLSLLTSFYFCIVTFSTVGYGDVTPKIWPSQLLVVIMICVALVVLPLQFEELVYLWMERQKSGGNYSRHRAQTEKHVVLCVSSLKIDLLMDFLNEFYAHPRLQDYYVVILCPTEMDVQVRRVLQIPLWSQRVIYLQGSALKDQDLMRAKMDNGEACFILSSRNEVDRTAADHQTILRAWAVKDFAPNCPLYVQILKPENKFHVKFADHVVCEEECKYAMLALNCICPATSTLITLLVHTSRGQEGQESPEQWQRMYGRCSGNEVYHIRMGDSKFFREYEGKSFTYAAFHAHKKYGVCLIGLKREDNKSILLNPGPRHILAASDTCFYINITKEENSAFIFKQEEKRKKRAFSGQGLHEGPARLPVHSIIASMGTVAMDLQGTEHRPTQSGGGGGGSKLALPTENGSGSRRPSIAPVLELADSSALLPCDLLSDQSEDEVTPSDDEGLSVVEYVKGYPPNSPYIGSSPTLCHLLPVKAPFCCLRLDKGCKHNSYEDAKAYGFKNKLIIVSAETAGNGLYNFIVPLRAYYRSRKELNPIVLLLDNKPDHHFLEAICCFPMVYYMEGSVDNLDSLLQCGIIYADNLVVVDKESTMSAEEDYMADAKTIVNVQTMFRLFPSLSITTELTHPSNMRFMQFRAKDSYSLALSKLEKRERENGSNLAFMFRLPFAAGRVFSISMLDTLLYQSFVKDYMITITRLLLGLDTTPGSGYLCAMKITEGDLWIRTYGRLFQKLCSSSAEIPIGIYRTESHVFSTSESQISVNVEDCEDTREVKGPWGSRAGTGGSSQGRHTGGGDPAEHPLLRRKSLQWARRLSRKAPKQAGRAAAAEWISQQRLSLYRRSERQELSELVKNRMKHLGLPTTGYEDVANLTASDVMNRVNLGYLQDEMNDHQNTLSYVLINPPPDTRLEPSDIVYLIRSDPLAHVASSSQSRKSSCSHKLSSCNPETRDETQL
Protocol: KCNT1-WT-Basal—Patch Clamp Assay
Inhibition of KCNT1 (KNa1.1, Slack) was evaluated using a tetracycline inducible cell line (HEK-TREX). Currents were recorded using the SyncroPatch 384PE automated, patch clamp system. Pulse generation and data collection were performed with PatchController384 V1.3.0 and DataController384 V1.2.1 (Nanion Technologies). The access resistance and apparent membrane capacitance were estimated using built-in protocols. Current were recorded in perforated patch mode (10 μM escin) from a population of cells. The cells were lifted, triturated, and resuspended at 800,000 cells/ml. The cells were allowed to recover in the cell hotel prior to experimentation. Currents were recorded at room temperature. The external solution contained the following (in mM): NaCl 105, NMDG 40, KCl 4, MgCl2 1, CaCl2 5 and HEPES 10 (pH=7.4, Osmolarity ˜300 mOsm). The extracellular solution was used as the wash, reference and compound delivery solution. The internal solution contained the following (in mM): NaCl 70, KF 70, KCl 10, EGTA 5, HEPES 5 and Escin 0.01 (pH=7.2, Osmolarity ˜295 mOsm). Escin is made at a 5 mM stock in water, aliquoted, and stored at −20° C. The compound plate was created at 2× concentrated in the extracellular solution. The compound was diluted to 1:2 when added to the recording well. The amount of DMSO in the extracellular solution was held constant at the level used for the highest tested concentration. A holding potential of −80 mV with a 100 ms step to 0 mV was used. Mean current was measured during the step to 0 mV. […] The average mean current from 3 sweeps was calculated and the % inhibition of each compound was calculated. The % Inhibition as a function of the compound concentration was fit with a Hill equation to derive IC50, slope, min and max parameters. If KCNT1 inhibition was less than 50% at the highest tested concentration or if an IC50 could not be calculated, then a percent inhibition was reported in place of the IC50.
In this table, “A” indicates IC50 of less than or equal to 1 μM; “B” indicates inhibition of between 1 μM to 20 μM; and “C” indicates inhibition of greater than or equal to 20 μM.

IC50 [nM]	SMILES
≤ 1000	C[C@H](NC(=O)[C@H]1CC[C@@H](C)CC1)c1nc(-c2ccnc(C3CC3)c2)no1 [Compound I-84, (1S,4R)—N—((S)-1-(3-(2-cyclopropylpyridin-4-yl)-1,2,4-oxadiazol-5-yl)ethyl)-4-methylcyclohexane-1-carboxamide]
1000 to 20000	C[C@H](NC(=O)CC(C)(C)C)c1nc(-c2ccnc(C(F)(F)F)c2)no1 [III-3, (S)-3,3-dimethyl-N-(1-(3-(2-(trifluoromethyl)pyridin-4-yl)-1,2,4-oxadiazol-5-yl)ethyl)butanamide]
≤ 1000	CC(C)Oc1cc(-c2noc([C@H](C)NC(=O)N(C)C(C)(C)C)n2)ccn1 [II-5]
≤ 1000	COc1ccc(C(=O)N[C@@H](C)c2nc(-c3ccnc(C4CC4)c3)no2)cc1 [Compound I-61, (S)—N-(1-(3-(2-cyclopropylpyridin-4-yl)-1,2,4-oxadiazol-5-yl)ethyl)-4-methoxybenzamide]
1000 to 20000	C[C@H](NC(=O)C12CC(C)(C1)C2)c1nc(-c2ccnc(C(F)(F)F)c2)no1 [Compound I-72, 3-methyl-N-[(1S)-1-[3-[2-(trifluoromethyl)-4-pyridyl]-1,2,4-oxadiazol-5-yl]ethyl]bicyclo[1.1.1]pentane-1-carboxamide]
1000 to 20000	C[C@H](NC(=O)c1nccn1C1CCC1)c1nc(-c2ccnc(C3CC3)c2)no1 [Compound I-104, (S)-1-cyclobutyl-N-(1-(3-(2-cyclopropylpyridin-4-yl)-1,2,4-oxadiazol-5-yl)ethyl)-1H-imidazole-2-carboxamide]
≤ 1000	C[C@H](NC(=O)C1(C)CCCCC1)c1nc(-c2ccnc(C(F)(F)F)c2)no1 [Compound I-71, 1-methyl-N-[(1S)-1-[3-[2-(trifluoromethyl)-4-pyridyl]-1,2,4-oxadiazol-5-yl]ethyl]cyclohexanecarboxamide]
≤ 1000	C[C@H](NC(=O)CN(C)c1ccccc1)c1nc(-c2ccnc(C(F)(F)F)c2)no1 [III-4, (S)-2-(methyl(phenyl)amino)-N-(1-(3-(2-(trifluoromethyl)pyridin-4-yl)-1,2,4-oxadiazol-5-yl)ethyl)acetamide]
1000 to 20000	C[C@H](NC(=O)N1CCCCC1)c1nc(-c2ccnc(C(F)(F)F)c2)no1 [II-10]
≤ 1000	C[C@H](NC(=O)c1ccccc1Cl)c1nc(-c2ccnc(C3CC3)c2)no1 [Compound I-80, 2-chloro-N-[(1S)-1-[3-(2-cyclopropyl-4-pyridyl)-1,2,4-oxadiazol-5-yl]ethyl]benzamide]
≤ 1000	C[C@H](NC(=O)C1CCC(C)(C)CC1)c1nc(-c2ccnc(C(F)(F)F)c2)no1 [Compound I-67, (S)-4,4-dimethyl-N-(1-(3-(2-(trifluoromethyl)pyridin-4-yl)-1,2,4-oxadiazol-5-yl)ethyl)cyclohexane-1-carboxamide]
≤ 1000	C[C@H](NC(=O)[C@H](C)c1ccccc1)c1nc(-c2ccnc(C3CC3)c2)no1 [Compound I-58, (R)—N—((S)-1-(3-(2-cyclopropylpyridin-4-yl)-1,2,4-oxadiazol-5-yl)ethyl)-2-phenylpropanamide]
≥ 20000	C[C@H](NC(=O)CN(C)C)c1nc(-c2ccnc(C(F)(F)F)c2)no1 [III-1, (S)-2-(dimethylamino)-N-(1-(3-(2-(trifluoromethyl)pyridin-4-yl)-1,2,4-oxadiazol-5-yl)ethyl)acetamide]
≤ 1000	C[C@H](NC(=O)C1CC2CCC1CC2)c1nc(-c2ccnc(C(F)(F)F)c2)no1 (stereo partly drawn) [Compound I-60, N—((S)-1-(3-(2-(trifluoromethyl)pyridin-4-yl)-1,2,4-oxadiazol-5-yl)ethyl)bicyclo[2.2.2]octane-2-carboxamide]

The next lines start with the compound.

SMILES	IC50 [nM]
C[C@H](NC(=O)c1ccc(Br)s1)c1nc(-c2ccnc(C(F)(F)F)c2)no1 [Compound I-18, (S)-5-bromo-N-(1-(3-(2-(trifluoromethyl)pyridin-4-yl)-1,2,4-oxadiazol-5-yl)ethyl)thiophene-2-carboxamide]	≤ 1000
CCOc1cc(-c2noc([C@H](C)NC(=O)c3ccccc3)n2)ccn1 [Compound I-44, (S)—N-(1-(3-(2-ethoxypyridin-4-yl)-1,2,4-oxadiazol-5-yl)ethyl)benzamide]	≤ 1000
C[C@H](NC(=O)c1ccno1)c1nc(-c2ccnc(C(F)(F)F)c2)no1 [Compound I-23, (S)—N-(1-(3-(2-(trifluoromethyl)pyridin-4-yl)-1,2,4-oxadiazol-5-yl)ethyl)isoxazole-5-carboxamide]	≥ 20000
CC[C@H](NC(=O)Cc1ccccc1)c1nc(-c2ccnc(C(F)(F)F)c2)no1 [Compound I-15, (S)-2-phenyl-N-(1-(3-(2-(trifluoromethyl)pyridin-4-yl)-1,2,4-oxadiazol-5-yl)propyl)acetamide]	≤ 1000
CC1CCCC1C(=O)N[C@@H](C)c1nc(-c2ccnc(C(F)(F)F)c2)no1 (stereo partly drawn) [Compound I-30, 2-methyl-N—((S)-1-(3-(2-(trifluoromethyl)pyridin-4-yl)-1,2,4-oxadiazol-5-yl)ethyl)cyclopentane-1-carboxamide]	1000 to 20000
C[C@H](NC(=O)c1ccc(C(F)(F)F)cn1)c1nc(-c2ccnc(C(F)(F)F)c2)no1 [Compound I-1, (S)-5-(trifluoromethyl)-N-(1-(3-(2-(trifluoromethyl)pyridin-4-yl)-1,2,4-oxadiazol-5-yl)ethyl)picolinamide]	1000 to 20000
Cc1nc(C(F)(F)F)ccc1C(=O)NC(C)c1nc(-c2cccc(F)c2)no1 (stereo not shown) [Compound I-47, N-[1-[3-(3-fluorophenyl)-1,2,4-oxadiazol-5-yl]ethyl]-2-methyl-6-(trifluoromethyl)pyridine-3-carboxamide]	1000 to 20000
C[C@H](NC(=O)c1cccnn1)c1nc(-c2ccnc(C(F)(F)F)c2)no1 [Compound I-24, (S)—N-(1-(3-(2-(trifluoromethyl)pyridin-4-yl)-1,2,4-oxadiazol-5-yl)ethyl)pyridazine-3-carboxamide]	≥ 20000
CC1CCC(C(=O)N[C@@H](C)c2nc(-c3ccnc(C(F)(F)F)c3)no2)CC1 (stereo partly drawn) [Compound I-19, (S)-4-methyl-N-(1-(3-(2-(trifluoromethyl)pyridin-4-yl)-1,2,4-oxadiazol-5-yl)ethyl)cyclohexane-1-carboxamide]	≤ 1000
C[C@H](NC(=O)C1CC(C)(C)C1)c1nc(-c2ccnc(C(F)(F)F)c2)no1 [Compound I-56, (S)-3,3-dimethyl-N-(1-(3-(2-(trifluoromethyl)pyridin-4-yl)-1,2,4-oxadiazol-5-yl)ethyl)cyclobutane-1-carboxamide]	≤ 1000
C[C@H](NC(=O)c1nc(-c2ccccc2)nn1C)c1nc(-c2cccc(F)c2)no1 [Compound I-38, (S)—N-(1-(3-(3-fluorophenyl)-1,2,4-oxadiazol-5-yl)ethyl)-1-methyl-3-phenyl-1H-1,2,4-triazole-5-carboxamide]	≥ 20000
